From patent US20170009228A1, “BIOLOGICAL MATERIALS AND THERAPEUTIC USES THEREOF” (IMPERIAL INNOVATIONS LIMITED, priority 2014, published 2017)

Assays:
TLR4 = assay: Cytokine synthesis in embryonic fibroblasts or macrophages from TLR4 deficient mice; type: cell-based
Method: (§1) MEFs express high levels of mRNA of all 9 murine TLRs and are specifically and highly responsive to TLR ligand activation. […] MEFs were isolated from d13 embryos harvested from age-matched, pregnant female wild type, TLR2, TLR4 and null mice (as described in Todaro (1963)). Fibroblasts were cultured at 2×10^4 cells/well in DMEM containing 10% (v/v) FBS and 100 U/ml penicillin/streptomycin in 96-well tissue culture plates for 24 hours before stimulation.
BMDMs were derived by aspirating the femurs of age matched female wild type, TLR2 and TLR4 null mice as described in Butler (1999)) and culturing the cells for 7 days in DMEM, 20% (v/v) FBS, 10 ml/L (v/v) antibiotic-antimycotic solution PSA, 50 μM β-Mercaptoethanol and 10 ng/ml M-CSF. Macrophages were then cultured at 1×10^5 cells/well in DMEM, 20% (v/v) FBS, 10 ml/L (v/v) antibiotic-antimycotic solution PSA, 50 μM β-Mercaptoethanol in 96-well tissue culture plates for 24 hours before stimulation.
(§2) Cells were incubated for 24 hours at 37° C. with the indicated doses of tenascin-C and recombinant tenascin-C fragments (1.0 μM-1.0 nM). Cells were also stimulated where indicated with LPS (1 ng/ml for human macrophages, 10 ng/ml for human fibroblasts, RA membrane cells and HEKs, 100 ng/ml for MEFS and BMDMs and 10 ng/ml for HEKS), PAM3 (10 ng/ml for human macrophages, human fibroblasts, and HEKs, 100 ng/ml for MEFs and BMDMs), murine IL-1 (5 ng/ml for MEFS) and murine TNF-α (100 ng/ml for MEFS). Unless specifically stated otherwise rough LPS was used for in vitro studies.
(§3) Supernatants were subsequently examined for the presence of the cytokines TNF-α, IL-6, and IL-8 by enzyme-linked immunosorbent assay (ELISA) according to the manufacturer's instructions. Absorbance was read on a spectrophotometric ELISA plate reader (Labsystems Multiscan Biochromic, Vantaa, Finland) and analyzed using the Ascent software program (Thermo Labsystems, Altrincham, UK).

[1] = test system: synovial fibroblasts from RA patients (RAF); assay: Cell adhesion to coated FBG, RA synovial fibroblasts; type: cell-based, human; conditions: coated wells, 45 minutes, crystal violet
Method: (§4) (A) The sequence identified to bind integrin ≢vβ3 is shown in white (Yokoyama et al., 2000). Within this sequence two Arginines (shown in black) were identified to be citrullinated. (B) Wells of a 96 well plate were coated with different concentrations of FBG, citrullinated FBG (cFBG), FBG incubated in buffer without Calcium (FBG —Ca^2+), or FBG incubated without PAD (FBG -PAD). As a positive control wells were coated with Fibronectin (FN) (1 ug/ml), and coating with BSA (10 mg/ml) served as negative control. Plates were incubated with human dermal fibroblasts (HDF) or synovial fibroblasts from RA patients (RAF) for 45 minutes and adhesion was measured by determining absorbance of attached cells after staining with crystal violet (0.1%). Data are shown as the mean of at least four independent experiments+s.e.m., *=p<0.05, **=p<0.01.

MyD88 [2] = assay: FBG stimulation of RA synovial fibroblasts infected with adenovirus expressing dominant negative MyD88; type: cell-based, human; conditions: 1 μM FBG
From the text: Recombinant, replication-deficient adenoviral vectors encoding wild type MyD88 (AdMyD88wt), dominant-negative forms of MyD88 (AdMyD88dn) and the GFP control (AdGFP) were constructed in-house. A description of the synthesis of these viruses is in Andreakos (2004). All viruses used in this study are E1/E3 deleted, belong to the Ad5 serotype. Viruses were propagated in 293 human embryonic kidney cells, purified by ultracentrifugation through two cesium chloride gradients, and viral titers determined by plaque assay as previously described (Sacre (2007)).
For adenoviral gene transfer experiments, human RA synovial fibroblasts were incubated with adenoviral vectors at a multiplicity of infection of 100, washed after 2 hours, cultured in complete medium for 24 hours, then stimulated for 24 hours, after which time supernatants were collected.
as §3

MyD88 [3] = assay: Cytokine synthesis in embryonic fibroblasts from MyD88 deficient mice; type: cell-based
Method: as §1, §2, §3

RA synovial fibroblasts = assay: Cytokine synthesis in RA synovial fibroblasts stimulated with tenascin-C, FBG or LPS; type: cell-based, human; conditions: RA synovial fibroblasts, 24 h
From the text: RA membrane cells (representing a mixed population of all synovial cell types) were isolated from synovial membranes obtained from patients undergoing joint replacement surgery as previously described (Brennan (1989)). RA synovial fibroblasts were isolated from the mixed population of RA membrane cells as previously described (Brennan (1989)). The study was approved by the local Trust ethics committee (Riverside NHS Research Committee), and waste tissue (synovium after joint replacement surgery) was obtained only after receiving signed informed consent from the patient and anonymyzing the tissue to protect patient identity.
Immediately after isolation, RA membrane cells and macrophages were cultured at 1×10^5 cells/well in RPMI 1640 containing 10% (v/v) FBS and 100 U/ml (Units/ml) penicillin/streptomycin in 96-well tissue culture plates for 24 hours before stimulation. Synovial fibroblasts (used only at either passage number 2 or 3) were cultured at 1×10^4 cells/well in DMEM containing 10% (v/v) FBS and 100 U/ml penicillin/streptomycin in 96-well tissue culture plates for 24 hours before stimulation.
as §2, §3

[4] = test system: human dermal fibroblasts (HDF); assay: Cell adhesion to coated FBG, human dermal fibroblasts; type: cell-based; conditions: coated wells, 45 minutes, crystal violet
Method: as §4

FBG: recombinant fibrinogen-like globe, 227 amino acid globular domain at the C terminal of tenascin-C
cytokine synthesis (TLR4): does not stimulate cytokine synthesis
adhesion of synovial fibroblasts from RA joints (RAF) [1]: proadhesive
FBG induction of IL-6 (MyD88 [2]): abolished
cytokine synthesis (MyD88 [3]; MEFs from MyD88 deficient mice, 24 h): does not stimulate cytokine synthesis
responsiveness after re-transfection of wild type MyD88 (MyD88 [3]; MyD88 deficient MEFs, data not shown): restored the responsiveness
IL-6 synthesis (RA synovial fibroblasts): to an equal extent to full-length tenascin-C
IL-8 synthesis (RA synovial fibroblasts): did not induce
adhesion of human dermal fibroblasts (HDF) [4]: proadhesive
